Source: ChEMBL document CHEMBL2203172, “Synthesis of chiral hydroxylated enones as potential anti-tumor agents” (Bioorg Med Chem Lett, 2012)

How the values were obtained:
[1] = tested on: HL-60; test: Cytotoxicity against human HL60 cells; assay type: functional, cell-based
[2] = tested on: HepG2; test: Cytotoxicity against human HepG2 cells; assay type: functional, cell-based
[3] = tested on: WRL68; test: Cytotoxicity against human WRL68 cells; assay type: cell-based

CO[C@H]1C=C(COC(C)=O)C(=O)[C@H](O)[C@H]1O
IC50 [1]: > 50 µM
IC50 [2]: > 50 µM
IC50 [3]: > 200 µM

CCCCCCCO[C@H]1C=C(COC(C)=O)C(=O)[C@H](O)[C@H]1O
IC50 [1]: 39.8 µM
IC50 [2]: > 50 µM
IC50 [3]: 152 µM

CC(=O)OCC1=C[C@H](OCc2ccc3ccccc3c2)[C@H](O)[C@@H](O)C1=O
IC50 [1]: > 50 µM
IC50 [2]: > 50 µM
IC50 [3]: > 200 µM

CC(=O)OCC1=C[C@H](OCc2ccc(-c3ccccc3)cc2)[C@H](O)[C@@H](O)C1=O
IC50 [3]: 71.3 µM

CCCO[C@H]1C=C(COC(C)=O)C(=O)[C@H](O)[C@H]1O
IC50 [1]: 10.1 µM
IC50 [2]: 33.6 µM
IC50 [3]: 191 µM

CCCCCO[C@H]1C=C(COC(C)=O)C(=O)[C@H](O)[C@H]1O
IC50 [1]: 3.1 µM
IC50 [2]: 16.1 µM
IC50 [3]: 169 µM

CCCCCO[C@@H]1C=C(COC(C)=O)C(=O)[C@H](O)[C@H]1O
IC50 [1]: 2.6 µM
IC50 [2]: 10.1 µM
IC50 [3]: 48.3 µM

OCC1=C[C@H](O)[C@H](O)[C@@H](O)[C@@H]1O [STREPTOL]
IC50 [1]: > 50 µM
IC50 [2]: > 50 µM
IC50 [3]: > 200 µM
